Read-outs that look alike come from different tables or passages of the source.
Target: T1, 293T-Dual hSTING-R232 cells (Homo sapiens, UniProt Q86WV6, H232R)
T1 construct: host or cells: 293T-Dual hSTING-R232 cells (HEK 293T)
Assay: 293T R232 cell reporter assay (HEK 293T reporter assay)
Type: cell-based
Settings: digitonin 10 μg/mL, 30 min exposure, 20 h incubation
Experimental: 293T-Dual hSTING-R232 cells (Invivogen) were plated in 96 well plates at a density of 5×10^4 cells per well in DMEM supplemented with 10% FBS, 1% Pen-Strep, 1% non-essential amino acids, 1% glutamine, and 1% HEPES. Assay setup took place after allowing cells to adhere for 48 h. Compounds dissolved in water were serially diluted in dosing buffer containing 10 μg/mL digitonin. Media was aspirated from the cells, and 50 μL buffer with compound was added in triplicate. After 30 min at 37° C., buffer was aspirated and replaced with 100 μL media. Cells were incubated for 20 h at 37° C., 5% CO2. IFN-beta expression and activation of the interferon regulatory factor (IRF) were measured based on luciferase and alkaline phosphatase reporter activity, respectively. Cell viability was determined in parallel.

[1] = alkaline phosphatase reporter, read-out: EC50 [μM] IRF reporter
[2] = luciferase reporter, read-out: EC50 [μM] IRN-β reporter
[3] = EC50 [μM] IRF reporter, alkaline phosphatase reporter
[4] = EC50 [μM] IRN-β reporter, luciferase reporter

T1 sequence (Q86WV6 whole entry H232R): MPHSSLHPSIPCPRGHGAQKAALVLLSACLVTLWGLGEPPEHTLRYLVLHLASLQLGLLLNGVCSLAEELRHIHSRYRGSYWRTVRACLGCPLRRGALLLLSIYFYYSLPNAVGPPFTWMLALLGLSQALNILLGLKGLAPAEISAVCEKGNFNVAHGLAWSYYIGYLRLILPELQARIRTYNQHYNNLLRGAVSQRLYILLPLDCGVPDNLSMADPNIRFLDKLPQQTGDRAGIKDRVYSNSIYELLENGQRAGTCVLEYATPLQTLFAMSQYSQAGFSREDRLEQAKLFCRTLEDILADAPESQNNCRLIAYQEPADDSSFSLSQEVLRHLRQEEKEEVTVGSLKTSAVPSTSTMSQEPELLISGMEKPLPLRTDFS

Row | SMILES | EC50 [1] | EC50 [2] | EC50 [3] | EC50 [4]
1 | COC1C2COP(=O)(S)OC3C(O)C(n4cnc5c(N)ncnc54)C4CC43COP(=O)(S)OC1C(n1cnc3c(=O)[nH]c(N)nc31)O2 (single isomer, unassigned) [Compound 1-6a] | 0.25 to 100 µM | 0.25 to 100 µM |  | 
2 | COC1C2COP(=O)(S)OC3C(O)C(n4cnc5c(N)ncnc54)C4CC43COP(=O)(S)OC1C(n1cnc3c(=O)[nH]c(N)nc31)O2 (single isomer, unassigned) [Compound 1-6b] | 0.25 to 100 µM |  |  | 
3 | Nc1ncnc2c1ncn2C1OC2COP(=O)(S)OC3C(O)C(n4cnc5c(N)ncnc54)C4CC43COP(=O)(S)OC1C2O (single isomer, unassigned) [Compound 1-14a] | 0.25 to 100 µM | > 100 µM |  | 
4 | Nc1ncnc2c1ncn2C1OC2COP(=O)(S)OC3C(O)C(n4cnc5c(N)ncnc54)C4CC43COP(=O)(S)OC1C2O (single isomer, unassigned) [Compound 1-14b] | 0.25 to 100 µM | > 100 µM |  | 
5 | Nc1nc2c(ncn2C2SC3COP(=O)(S)OC4C(O)C(n5cnc6c(N)ncnc65)C5CC54COP(=O)(O)OC2C3O)c(=O)[nH]1 (single isomer, unassigned) [Compound 1-30a] | 0.25 to 100 µM | 0.25 to 100 µM |  | 
6 | Nc1nc2c(ncn2C2SC3COP(=O)(S)OC4C(O)C(n5cnc6c(N)ncnc65)C5CC54COP(=O)(O)OC2C3O)c(=O)[nH]1 (single isomer, unassigned) [Compound 1-30b] | > 100 µM | > 100 µM |  | 
7 | COC1C2COP(=O)(S)OC3C(COP(=O)(S)OC1C(c1snc4c(=O)[nH]c(N)nc14)O2)OC(n1cnc2c(N)ncnc21)C3F (single isomer, unassigned) [Compound 1-48a] | 0.25 to 100 µM | 0.25 to 100 µM |  | 
8 | COC1C2COP(=O)(S)OC3C(COP(=O)(S)OC1C(c1snc4c(=O)[nH]c(N)nc14)O2)OC(n1cnc2c(N)ncnc21)C3F (single isomer, unassigned) [Compound 1-48b] | < 0.25 µM | < 0.25 µM |  | 
9 | CO[C@H]1[C@H]2OP(=O)(O)OC[C@@]34C[C@@H]3[C@@H](n3cnc5c(N)ncnc53)[C@H](OP(=O)(O)OC[C@H]1O[C@H]2n1cnc2c(=O)[nH]c(N)nc21)[C@@H]4O [Compound 1-3] | 0.25 to 100 µM | > 100 µM |  | 
10 | CO[C@H]1[C@H]2OP(=O)(O)OC[C@@]34C[C@@H]3[C@@H](n3ccc5c(N)ncnc53)[C@H](O)[C@@H]4OP(=O)(O)OC[C@H]1O[C@H]2n1cnc2c(=O)[nH]c(N)nc21 [Compound 1-4] | < 0.25 µM | < 0.25 µM |  | 
11 | COC1C2COP(=O)(O)OC3C(COP(=O)(O)OC1C(c1scc4c(=O)[nH]c(N)nc14)O2)OC(n1cnc2c(N)ncnc21)C3F (stereo not drawn) [Compound 1-5] | < 0.25 µM | < 0.25 µM |  | 
12 | CO[C@H]1[C@H]2OP(=O)(O)OC[C@@H]3[C@@H](OP(=O)(O)OC[C@H]1O[C@H]2n1cnc2c(=O)[nH]c(N)nc21)[C@@H](O)[C@]1(n2cnc4c(N)ncnc42)C[C@@H]31 [Compound 1-7] | < 0.25 µM | < 0.25 µM |  | 
13 | Nc1nc2c(ncn2[C@H]2[C@@H]3OP(=O)(O)OC[C@H]4O[C@@H](n5cnc6c(N)ncnc65)[C@H](F)[C@@H]4OP(=O)(O)OC[C@]4(C[C@H]24)[C@H]3O)c(=O)[nH]1 [Compound 1-8] | 0.25 to 100 µM | 0.25 to 100 µM |  | 
14 | Nc1nc2c(ncn2[C@H]2[C@H](O)[C@@H]3OP(=O)(O)OC[C@H]4O[C@@H](n5cnc6c(N)ncnc65)[C@H](F)[C@@H]4OP(=O)(O)OC[C@@]34C[C@H]24)c(=O)[nH]1 [Compound 1-9] | < 0.25 µM | < 0.25 µM |  | 
15 | CO[C@H]1[C@H]2OP(=O)(O)OC[C@]34C[C@@H]3[C@@H](n3cnc5c(N)ncnc53)[C@H](O)[C@@H]4O[P@](=O)([S][Na])OC[C@H]1O[C@H]2n1cnc2c(=O)[nH]c(N)nc21 [Compound 1-10a] |  |  | 0.25 to 100 µM | 0.25 to 100 µM
16 | CO[C@H]1[C@H]2OP(=O)(O)OC[C@H]3O[C@@H](n4cnc5c(N)nnnc54)[C@H](O)[C@@H]3OP(=O)(O)OC[C@H]1O[C@H]2n1cnc2c(=O)[nH]c(N)nc21 [Compound 1-11] | > 100 µM | > 100 µM |  | 
17 | CO[C@H]1[C@H]2OP(=O)(O)OC[C@]34C[C@@H]3[C@@H](n3cnc5c(N)ncnc53)[C@H](O)[C@@H]4OP(=O)(O)OC[C@H]1O[C@H]2c1scc2c(=O)[nH]c(N)nc12 [Compound 1-12] | > 100 µM | > 100 µM |  | 
18 | Nc1ncnc2c1ncn2C1OC2COP(=O)(S)OC3C(O)C(n4cnc5c(N)ncnc54)C4CC43COP(=O)(S)OC1C2O (stereo not drawn) [Compound 1-14c] | 0.25 to 100 µM | 0.25 to 100 µM |  | 
19 | Nc1ncnc2c1ncn2[C@H]1[C@H](O)[C@@H]2O[P@](=O)([S][Na])OC[C@H]3O[C@@H](n4cnc5c(N)ncnc54)[C@H](OP(=O)(O)OC[C@@]24C[C@H]14)[C@@H]3O [Compound 1-15a] |  |  | > 100 µM | > 100 µM

Row | SMILES | EC50 [1] | EC50 [2] | EC50 [3] | EC50 [4]
20 | Nc1ncnc2c1ncn2[C@H]1[C@H](O)[C@@H]2O[P@@](=O)([S][Na])OC[C@H]3O[C@@H](n4cnc5c(N)ncnc54)[C@H](OP(=O)(O)OC[C@@]24C[C@H]14)[C@@H]3O [Compound 1-15b] |  |  | 0.25 to 100 µM | 0.25 to 100 µM
21 | COC1C2COP(=O)(S)OC3C(COP(=O)(O)OC1C(n1cnc4c(=O)[nH]c(N)nc41)O2)C1CC1(n1cnc2c(N)ncnc21)C3O (stereo not drawn) [Compound 1-16a] | 0.25 to 100 µM | 0.25 to 100 µM |  | 
22 | Nc1nc2c(ncn2[C@@H]2O[C@@H]3COP(=O)(O)O[C@@H]4[C@@H](COP(=O)(O)O[C@H]3[C@H]2O)[C@@H]2C[C@@]2(n2cnc3c(N)ncnc32)[C@@H]4O)c(=O)[nH]1 [Compound 1-17] | < 0.25 µM | < 0.25 µM |  | 
23 | Nc1nc2c(ncn2[C@H]2[C@H](O)[C@@H]3OP(=O)(O)OC[C@H]4O[C@@H](n5cnc6c(N)ncnc65)[C@H](F)[C@@H]4O[P@](=O)([S][Na])OC[C@@]34C[C@H]24)c(=O)[nH]1 [Compound 1-19a] |  |  | 0.25 to 100 µM | 0.25 to 100 µM
24 | Nc1ncnc2c1ncn2[C@H]1[C@H](O)[C@@H]2O[P@](=O)([S][Na])OC[C@H]3O[C@@H](n4cnc5c(=O)[nH]cnc54)[C@H](F)[C@@H]3OP(=O)(O)OC[C@@]23C[C@H]13 [Compound 1-20a] |  |  | 0.25 to 100 µM | 0.25 to 100 µM
25 | Nc1nc2c(ncn2[C@@H]2O[C@@H]3CO[P@@](=O)([S][Na])O[C@H]4[C@@H](O)[C@H](n5cnc6c(N)ncnc65)[C@H]5C[C@]54COP(=O)(O)O[C@@H]2[C@@H]3F)c(=O)[nH]1 [Compound 1-22a] |  |  | 0.25 to 100 µM | 0.25 to 100 µM
26 | Nc1nc2c(ncn2[C@H]2[C@H](O)[C@@H]3OP(=O)(O)OC[C@H]4C[C@@H](n5cnc6c(N)ncnc65)[C@H](O)[C@@H]4OP(=O)(O)OC[C@@]34C[C@H]24)c(=O)[nH]1 [Compound 1-23] | 0.25 to 100 µM | 0.25 to 100 µM |  | 
27 | Nc1nc2c(ncn2[C@@]23C[C@H]2[C@@H]2COP(=O)(O)O[C@H]4[C@@H](F)[C@H](n5cnc6c(N)ncnc65)O[C@@H]4COP(=O)(O)O[C@@H]3[C@@H]2O)c(=O)[nH]1 [Compound 1-24] | 0.25 to 100 µM | > 100 µM |  | 
28 | COC1C2COP(=O)(O)OC3CC(c4snc5c(N)ncnc45)OC3COP(=O)(O)OC1C(n1cnc3c(=O)[nH]c(N)nc31)O2 (stereo not drawn) [Compound 1-25] | < 0.25 µM | < 0.25 µM |  | 
29 | Nc1nc2c(ncn2C2OC34COP(=O)(O)OC5C6OCC5(COP(=O)(O)OC2C3C4)OC6n2cnc3c(N)ncnc32)c(=O)[nH]1 (stereo not drawn) [Compound 1-27] | < 0.25 µM | < 0.25 µM |  | 
30 | Nc1nc2c(nnn2[C@@H]2O[C@@H]3CO[P@@](=O)([S][Na])O[C@H]4[C@@H](O)[C@H](n5cnc6c(N)ncnc65)[C@H]5C[C@@]54COP(=O)(O)O[C@@H]2[C@@H]3O)c(=O)[nH]1 [Compound 1-34b] |  |  | 0.25 to 100 µM | 0.25 to 100 µM
31 | CO[C@H]1[C@H]2OP(=O)(O)OC[C@]34C[C@@H]3[C@@H](n3cnc5c(N)ncnc53)[C@H](O)[C@@H]4O[P@@](=O)(S)OC[C@H]1O[C@H]2n1nnc2c(=O)[nH]c(N)nc21 [Compound 1-35b] | < 0.25 µM | 0.25 to 100 µM |  | 
32 | Nc1nc2c(ncn2[C@H]2[C@@H]3OP(=O)(O)OC[C@]45C[C@@H]4[C@@H](n4cnc6c(N)ncnc64)[C@H](O)[C@@H]5O[P@](=O)([S][Na])OC[C@@]4(C[C@H]24)[C@H]3O)c(=O)[nH]1 [Compound 1-37] |  |  | 0.25 to 100 µM | > 100 µM
33 | Nc1nc2c(ncn2[C@H]2[C@H](O)[C@@H]3OP(=O)(O)OC[C@]45C[C@@H]4[C@@H](n4cnc6c(N)ncnc64)[C@H](O)[C@@H]5O[P@](=O)([S][Na])OC[C@@]34C[C@H]24)c(=O)[nH]1 [Compound 1-38a] |  |  | > 100 µM | > 100 µM
34 | Nc1nc2c(ncn2[C@H]2[C@H](O)[C@@H]3OP(=O)(O)OC[C@]45C[C@@H]4[C@@H](n4cnc6c(N)ncnc64)[C@H](O)[C@@H]5O[P@@](=O)([S][Na])OC[C@@]34C[C@H]24)c(=O)[nH]1 [Compound 1-38b] |  |  | > 100 µM | > 100 µM
35 | COC1C2COP(=O)(S)OC3C(COP(=O)(S)OC1C(c1snc4c(=O)[nH]c(N)nc14)O2)OC(n1cnc2c(N)ncnc21)C3F (stereo not drawn) [Compound 1-48c] | < 0.25 µM | 0.25 to 100 µM |  | 
36 | COC1C2COP(=O)(S)OC3C(COP(=O)(S)OC1C(c1snc4c(=O)[nH]c(N)nc14)O2)OC(n1cnc2c(N)ncnc21)C3F (stereo not drawn) [Compound 1-48d] | < 0.25 µM |  |  | 
37 | CO[C@H]1[C@H]2OP(=O)(O)OC[C@@]34CO[C@@H]([C@H](n5cnc6c(N)ncnc65)O3)[C@@H]4OP(=O)(O)OC[C@H]1O[C@H]2c1snc2c(=O)[nH]c(N)nc12 [Compound 1-49] | < 0.25 µM | 0.25 to 100 µM |  | 

From patent US11787833B2, “Modified cyclic dinucleoside compounds as sting modulators” (ALIGOS THERAPEUTICS, INC., priority 2019, dated 2023)
